Test results as given in patent US9527832B2, “Substituted condensed pyrimidine compounds” (GRÜNENTHAL GMBH, priority 2013, dated 2016).

Biological target: T1, human PDE4B1 (Homo sapiens, UniProt Q07343)
T1 construct: host or cells: Sf9 cells
Assay: cAMP HTRF assay to determine the activity of hPDE4B1
Format: biochemical
Details: for inhibition at 1 µM: Percentage inhibition of PDE4B at 1 μM test concentration; for IC50: dose response measurements with eight concentrations, reported as ranges, read-out: IC50
Summary of the method: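 Sf9-expressed recombinant human PDE4B1 (4.8 U) in Tris-HCl/MgCl2/DTT/Tween 20 buffer pH 7.8, with cAMP at 40 nM final, 30 min at room temperature. Reaction stopped with IBMX 1 mM; remaining cAMP detected by HTRF (665/620 nm ratio). IC50 from eight-point dose-response, n=2.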

T1 sequence (Q07343 whole entry): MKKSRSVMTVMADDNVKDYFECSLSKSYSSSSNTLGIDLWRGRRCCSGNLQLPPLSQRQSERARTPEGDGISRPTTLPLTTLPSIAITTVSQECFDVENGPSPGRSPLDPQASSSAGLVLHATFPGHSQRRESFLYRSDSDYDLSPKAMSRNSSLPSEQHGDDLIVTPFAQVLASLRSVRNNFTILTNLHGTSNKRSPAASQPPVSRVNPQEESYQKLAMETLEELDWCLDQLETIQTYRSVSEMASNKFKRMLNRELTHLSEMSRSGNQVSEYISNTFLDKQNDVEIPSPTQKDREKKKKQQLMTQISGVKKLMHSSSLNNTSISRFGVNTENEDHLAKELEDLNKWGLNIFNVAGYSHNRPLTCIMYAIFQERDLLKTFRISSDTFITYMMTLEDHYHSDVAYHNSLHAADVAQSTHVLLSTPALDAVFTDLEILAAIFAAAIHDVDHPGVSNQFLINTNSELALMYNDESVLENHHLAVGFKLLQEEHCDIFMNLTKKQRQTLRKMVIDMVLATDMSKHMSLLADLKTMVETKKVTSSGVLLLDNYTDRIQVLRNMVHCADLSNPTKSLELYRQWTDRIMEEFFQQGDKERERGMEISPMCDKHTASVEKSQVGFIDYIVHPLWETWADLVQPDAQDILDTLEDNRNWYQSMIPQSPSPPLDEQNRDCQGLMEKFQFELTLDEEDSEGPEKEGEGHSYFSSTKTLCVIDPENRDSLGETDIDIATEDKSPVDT

inhibition at 1 µM	IC50	Compound
59%	100 to 1000 nM	O=C(O)c1ccc2c(c1)CCN2c1nc(-c2ccc(Cl)s2)nc2c1CCC2 [Compound No. 1-72, 1-(2-(5-Chlorothiophen-2-yl)-6,7-dihydro-5H-cyclopenta[d]pyrimidin-4-yl)indoline-5-carboxylic acid]
80%	100 to 1000 nM	O=C(O)c1ccc2c(cnn2-c2nc(-c3ccc(Cl)s3)nc3c2CCC3)c1 [Compound No. 1-73, 1-(2-(5-Chlorothiophen-2-yl)-6,7-dihydro-5H-cyclopenta[d]pyrimidin-4-yl)-1H-indazole-5-carboxylic acid]
88%	100 to 1000 nM	COC(=O)COc1ccc2c(c1)N(c1nc(-c3ccc(Cl)s3)nc3c1CCC3)CC2 [Compound No. 1-79, Methyl 2-((1-(2-(5-chlorothiophen-2-yl)-6,7-dihydro-5H-cyclopenta[d]pyrimidin-4-yl)indolin-6-yl)oxy)acetate]
108%	< 100 nM	O=C(O)Cc1ccc2c(c1)CCN2c1nc(-c2cc3ccccc3s2)nc2c1C[S+]([O-])C2 (stereo not drawn) [Compound No. 1-80, 2-(1-(2-(Benzo[b]thiophen-2-yl)-6-oxido-5,7-dihydrothieno[3,4-d]pyrimidin-4-yl)indolin-5-yl)acetic acid]
96%	< 100 nM	COc1ccc(-c2nc3c(c(N4CCc5ccc(OCC(=O)N(C)C)cc54)n2)CS(=O)(=O)C3)cc1F [Compound No. 2-37, 2-((1-(2-(3-Fluoro-4-methoxyphenyl)-6,6-dioxido-5,7-dihydrothieno[3,4-d]pyrimidin-4-yl)indolin-6-yl)oxy)-N,N-dimethylacetamide]
85%	< 100 nM	CN(C)C(=O)COc1ccc2c(c1)N(c1nc(-c3ccc(F)c(F)c3)nc3c1CS(=O)(=O)C3)CC2 [Compound No. 2-41, 2-((1-(2-(3,4-Difluorophenyl)-6,6-dioxido-5,7-dihydrothieno[3,4-d]pyrimidin-4-yl)indolin-6-yl)oxy)-N,N-dimethylacetamide]
79%	< 100 nM	CN(C)C(=O)COc1ccc2c(c1)N(c1nc(-c3ccc(Cl)s3)nc3c1CCC3)CC2 [Compound No. 2-42, 2-((1-(2-(5-Chlorothiophen-2-yl)-6,7-dihydro-5H-cyclopenta[d]pyrimidin-4-yl)indolin-6-yl)oxy)-N,N-dimethylacetamide]
68%	100 to 1000 nM	CN(C(=O)COc1ccc2c(c1)N(c1nc(-c3ccc(Cl)s3)nc3c1CS(=O)(=O)C3)CC2)C1CC1 [Compound No. 2-56, 2-((1-(2-(5-Chlorothiophen-2-yl)-6,6-dioxido-5,7-dihydrothieno[3,4-d]pyrimidin-4-yl)indolin-6-yl)oxy)-N-cyclopropyl-N-methylacetamide]
89%	< 100 nM	CN(CC1CC1)C(=O)COc1ccc2c(c1)N(c1nc(-c3ccc(Cl)s3)nc3c1CS(=O)(=O)C3)CC2 [Compound No. 2-57, 2-((1-(2-(5-Chlorothiophen-2-yl)-6,6-dioxido-5,7-dihydrothieno[3,4-d]pyrimidin-4-yl)indolin-6-yl)oxy)-N-(cyclopropylmethyl)-N-methylacetamide]
70%	100 to 1000 nM	CNC(=O)COc1ccc2c(c1)N(c1nc(-c3ccc(Cl)s3)nc3c1CS(=O)(=O)C3)CC2 [Compound No. 2-58, 2-((1-(2-(5-Chlorothiophen-2-yl)-6,6-dioxido-5,7-dihydrothieno[3,4-d]pyrimidin-4-yl)indolin-6-yl)oxy)-N-methylacetamide]

Second part, the compound before the results:

Compound	inhibition at 1 µM	IC50
O=C(O)c1ccc2c(ccn2-c2nc(-c3ccc(Cl)s3)nc3c2CCC3)c1 [Compound No. 1-70, 1-(2-(5-Chlorothiophen-2-yl)-6,7-dihydro-5H-cyclopenta[d]pyrimidin-4-yl)-1H-indole-5-carboxylic acid]	61%	100 to 1000 nM
O=C(O)Cc1ccc2c(ccn2-c2nc(-c3ccc(Cl)s3)nc3c2CCC3)c1 [Compound No. 1-71, 2-(1-(2-(5-Chlorothiophen-2-yl)-6,7-dihydro-5H-cyclopenta[d]pyrimidin-4-yl)-1H-indol-5-yl)acetic acid]	64%	100 to 1000 nM
NC(=O)c1ccc(-c2nc3c(c(N4CCc5cc(CC(=O)O)ccc54)n2)CCC3)s1 [Compound No. 1-75, 2-(1-(2-(5-Carbamoylthiophen-2-yl)-6,7-dihydro-5H-cyclopenta[d]pyrimidin-4-yl)indolin-5-yl)acetic acid]	101%	< 100 nM
COC(=O)COc1ccc2c(c1)N(c1nc(-c3ccc(Cl)s3)nc3c1CS(=O)(=O)C3)CC2 [Compound No. 1-77, Methyl 2-((1-(2-(5-chlorothiophen-2-yl)-6,6-dioxido-5,7-dihydrothieno[3,4-d]pyrimidin-4-yl)indolin-6-yl)oxy)acetate]	62%	100 to 1000 nM
COC(=O)Cc1ccc2c(c1)CCN2c1nc(-c2ccc(Cl)s2)nc2c1CS(=O)(=O)C2 [Compound No. 1-78, Methyl 2-(1-(2-(5-chlorothiophen-2-yl)-6,6-dioxido-5,7-dihydrothieno[3,4-d]pyrimidin-4-yl)indolin-5-yl)acetate]	25%	
O=C(O)Cc1ccc2c(c1)CCN2c1nc(-c2ccc3occc3c2)nc2c1C[S+]([O-])C2 (stereo not drawn) [Compound No. 1-81, 2-(1-(2-(Benzofuran-5-yl)-6-oxido-5,7-dihydrothieno[3,4-d]pyrimidin-4-yl)indolin-5-yl)acetic acid]	106%	< 100 nM
COc1ccc(-c2nc3c(c(N4CCc5ccc(OCC(=O)N(C)C)cc54)n2)CS(=O)(=O)C3)cc1 [Compound No. 2-21, 2-((1-(2-(4-Methoxyphenyl)-6,6-dioxido-5,7-dihydrothieno[3,4-d]pyrimidin-4-yl)indolin-6-yl)oxy)-N,N-dimethylacetamide]	88%	< 100 nM
COc1ccc(-c2nc3c(c(N4CCc5ccc(OCC(=O)N(C)C)cc54)n2)CS(=O)(=O)C3)cc1Cl [Compound No. 2-33, 2-((1-(2-(3-Chloro-4-methoxyphenyl)-6,6-dioxido-5,7-dihydrothieno[3,4-d]pyrimidin-4-yl)indolin-6-yl)oxy)-N,N-dimethylacetamide]	100%	< 100 nM
COc1ccc(-c2nc3c(c(N4CCc5ccc(OCC(=O)N(C)C)cc54)n2)C[S+]([O-])C3)cc1F (stereo not drawn) [Compound No. 2-36, 2-((1-(2-(3-Fluoro-4-methoxyphenyl)-6-oxido-5,7-dihydrothieno[3,4-d]pyrimidin-4-yl)indolin-6-yl)oxy)-N,N-dimethylacetamide]	98%	< 100 nM
CN(C)C(=O)COc1ccc2c(c1)N(c1nc(-c3ccc(F)c(F)c3)nc3c1C[S+]([O-])C3)CC2 (stereo not drawn) [Compound No. 2-40, 2-((1-(2-(3,4-Difluorophenyl)-6-oxido-5,7-dihydrothieno[3,4-d]pyrimidin-4-yl)indolin-6-yl)oxy)-N,N-dimethylacetamide]	119%	< 100 nM
CN(C)C(=O)COc1ccc2c(c1)N(c1nc(-c3ccc(Cl)s3)nc3c1CS(=O)(=O)C3)CC2 [Compound No. 2-45, 2-((1-(2-(5-Chlorothiophen-2-yl)-6,6-dioxido-5,7-dihydrothieno[3,4-d]pyrimidin-4-yl)indolin-6-yl)oxy)-N,N-dimethylacetamide]	105%	< 100 nM
CN(C)C(=O)COc1ccc2c(c1)N(c1nc(-c3ccc(F)s3)nc3c1CCC3)CC2 [Compound No. 2-46, 2-((1-(2-(5-Fluorothiophen-2-yl)-6,7-dihydro-5H-cyclopenta[d]pyrimidin-4-yl)indolin-6-yl)oxy)-N,N-dimethylacetamide]	94%	< 100 nM
CN(C)C(=O)COc1ccc2c(c1)N(c1nc(-c3ccc(F)s3)nc3c1CS(=O)(=O)C3)CC2 [Compound No. 2-49, 2-((1-(2-(5-Fluorothiophen-2-yl)-6,6-dioxido-5,7-dihydrothieno[3,4-d]pyrimidin-4-yl)indolin-6-yl)oxy)-N,N-dimethylacetamide]	127%	< 100 nM
CC(C)NC(=O)COc1ccc2c(c1)N(c1nc(-c3ccc(Cl)s3)nc3c1CS(=O)(=O)C3)CC2 [Compound No. 2-54, 2-((1-(2-(5-Chlorothiophen-2-yl)-6,6-dioxido-5,7-dihydrothieno[3,4-d]pyrimidin-4-yl)indolin-6-yl)oxy)-N-isopropylacetamide]	54%	100 to 1000 nM
CCNC(=O)COc1ccc2c(c1)N(c1nc(-c3ccc(Cl)s3)nc3c1CS(=O)(=O)C3)CC2 [Compound No. 2-55, 2-((1-(2-(5-Chlorothiophen-2-yl)-6,6-dioxido-5,7-dihydrothieno[3,4-d]pyrimidin-4-yl)indolin-6-yl)oxy)-N-ethylacetamide]	52%	
NC(=O)COc1ccc2c(c1)N(c1nc(-c3ccc(Cl)s3)nc3c1CS(=O)(=O)C3)CC2 [Compound No. 2-59, 2-((1-(2-(5-Chlorothiophen-2-yl)-6,6-dioxido-5,7-dihydrothieno[3,4-d]pyrimidin-4-yl)indolin-6-yl)oxy)acetamide]	76%	100 to 1000 nM
O=C(COc1ccc2c(c1)N(c1nc(-c3ccc(Cl)s3)nc3c1CS(=O)(=O)C3)CC2)NC1COC1 [Compound No. 2-60, 2-((1-(2-(5-Chlorothiophen-2-yl)-6,6-dioxido-5,7-dihydrothieno[3,4-d]pyrimidin-4-yl)indolin-6-yl)oxy)-N-(oxetan-3-yl)acetamide]	75%	100 to 1000 nM
O=C(COc1ccc2c(c1)N(c1nc(-c3ccc(Cl)s3)nc3c1CS(=O)(=O)C3)CC2)NC1CC1 [Compound No. 2-61, 2-((1-(2-(5-Chlorothiophen-2-yl)-6,6-dioxido-5,7-dihydrothieno[3,4-d]pyrimidin-4-yl)indolin-6-yl)oxy)-N-cyclopropylacetamide]	60%	< 100 nM
